# What was measured:
# BRD4-BD1 = BRD4-BD1 (Homo sapiens (Human), UniProt O60885); assay: BRD4 AlphaScreen assay (BRD4-BD1); format: binding; details: biotin-labeled tetra-acetylated histone H4 peptide
# Summary of the method: (§1)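 AlphaScreen displacement at room temperature: 75 min with biotin-H4Ac4 peptide (50 nM) and sub-nanomolar BRD4-BD1 or BD2, then 75 min dark incubation with donor/acceptor beads (2-4 μg/mL). Buffer Tris-HCl pH 7.5 with Tween-20, BSA, DTT; DMSO 1.25% for BD1, 0.83% for BD2. IC50 by curve fitting.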
# BRD4-BD2 = BRD4-BD2 (Homo sapiens (Human), UniProt O60885); assay: BRD4 AlphaScreen assay (BRD4-BD2); format: binding; details: biotin-labeled tetra-acetylated histone H4 peptide
# Summary of the method: as §1
# KMS.12.BM cells = assay: KMS.12.BM cell viability assay (ATP quantitation, Cell Titer-GLO); format: cell-based; details: human myeloma cell line, 3 days, concentration required for 50% cell death
# Procedure: KMS. 12.BM cell line (human myeloma) was purchased from JCRB (Osaka, Japan) and maintained in RPMI with 10% FBS culture medium. To measure the cytotoxic activity of the compounds through ATP quantitation, the KMS. 12.BM cells are plated in the RPMI culture medium at 5000 cells/well/per 100 μL into a 96-well polystyrene clear black tissue culture plate (Greiner-bio-one through VWR, NJ), in the presence or absence of a concentration range of test compounds. After 3 days, […] Cell Titer-GLO Luminescent (Promega, Madison, Wis.) cell culture agent is added to each well for 10 minutes at room temperature to stabilize the luminescent signal. This determines the number of viable cells in culture based on quantitation of the ATP present, which signals the presence of metabolically active cells. Luminescence is measured with the Top Count 384 (Packard Bioscience through Perkin Elmer, Boston, Mass.). Compound inhibition is determined relative to cells cultured with no drug and the IC50 is reported as the compound concentration required for 50% cell death.
compound,measurement,setting,value
"COc1cc(-c2cn(C)c(=O)c3[nH]ccc23)c2c(c1)N(C(C)C)C(=O)C(C(C)C)O2 (centres unmarked) [Example 16, 2,4-diisopropyl-6-methoxy-8-(6-methyl-7-oxo-6,7-dhydro-1H-pyrrolo[2,3-c]pyridin-4-yl)-2H-1,4-benzoxazin-3(4H)-one]",IC50,BRD4-BD1,[…]
same,IC50,KMS.12.BM cells,≤ 1000 nM
"CC(C)C1Oc2c(-c3cn(C)c(=O)c4[nH]ccc34)cc(S(=O)(=O)N(C)C)cc2N(C)C1=O (centres unmarked) [Example 71, 2-isopropyl-N,N,4-trimethyl-8-(6-methyl-7-oxo-6,7-dihydro-1H-pyrrolo[2,3-c]pyridin-4-yl)-3-oxo-3,4-dihydro-2H-1,4-benzoxazine-6-sulfonamide]",IC50,BRD4-BD1,≤ 100 nM
same,IC50,BRD4-BD2,≤ 100 nM
"Cn1cc(-c2cc(S(=O)(=O)N3CCCCC3)cc3c2OC(C)(C)C(=O)N3)c2cc[nH]c2c1=O [Example 72, 2,2-dimethyl-8-(6-methyl-7-oxo-6,7-dihydro-1H-pyrrolo[2,3-c]pyridin-4-yl)-6-(piperidin-1-ylsulfonyl)-2H-1,4-benzoxazin-3(4H)-one]",IC50,BRD4-BD1,≤ 100 nM
same,IC50,BRD4-BD2,≤ 100 nM
"CN1C(=O)C(C)(C)Oc2c(-c3cn(C)c(=O)c4[nH]ccc34)cc(S(=O)(=O)N3CCCCC3)cc21 [Example 73, 2,2,4-trimethyl-8-(6-methyl-7-oxo-6,7-dihydro-1H-pyrrolo[2,3-c]pyridin-4-yl)-6-(piperidin-1-ylsulfonyl)-2H-1,4-benzoxazin-3(4H)-one]",IC50,BRD4-BD1,≤ 100 nM
same,IC50,BRD4-BD2,≤ 100 nM
"CN1C(=O)C(C)(C)Oc2c(-c3cn(C)c(=O)c4[nH]ccc34)cc(S(C)(=O)=O)cc21 [Example 75, 2,2,4-trimethyl-8-(6-methyl-7-oxo-6,7-dihydro-1H-pyrrolo[2,3-c]pyridin-4-yl)-6-(methylsulfonyl)-2H-1,4-benzoxazin-3(4H)-one]",IC50,BRD4-BD1,≤ 100 nM
same,IC50,BRD4-BD2,≤ 100 nM
"CCS(=O)(=O)c1cc(-c2cn(C)c(=O)c3[nH]ccc23)c2c(c1)N(C)C(=O)C(C)(C)O2 [Example 76, 6-(ethylsulfonyl)-2,2,4-trimethyl-8-(6-methyl-7-oxo-6,7-dihydro-1H-pyrrolo[2,3-c]pyridin-4-yl)-2H-1,4-benzoxazin-3(4H)-one]",IC50,BRD4-BD1,≤ 100 nM
same,IC50,BRD4-BD2,≤ 100 nM
"CCS(=O)(=O)c1cc2c(c(-c3cn(C)c(=O)c4[nH]ccc34)c1)OC(C)(C)C(=O)N2 [Example 78, 6-(ethylsulfonyl)-2,2-dimethyl-8-(6-methyl-7-oxo-6,7-dihydro-1H-pyrrolo[2,3-c]pyridin-4-yl)-2H-1,4-benzoxazin-3(4H)-one]",IC50,BRD4-BD1,≤ 100 nM
same,IC50,BRD4-BD2,≤ 100 nM
"CC(C)S(=O)(=O)c1cc2c(c(-c3cn(C)c(=O)c4[nH]ccc34)c1)OC(C)(C)C(=O)N2 [Example 79, 6-(isopropylsulfonyl)-2,2-dimethyl-8-(6-methyl-7-oxo-6,7-dihydro-1H-pyrrolo[2,3-c]pyridin-4-yl)-2H-1,4-benzoxazin-3(4H)-one]",IC50,BRD4-BD1,≤ 100 nM
same,IC50,BRD4-BD2,≤ 100 nM
"CC(=O)c1cc2c(c(-c3cn(C)c(=O)c4[nH]ccc34)c1)OC(C)(C)C(=O)N2 [Example 80, 6-acetyl-2,2-dimethyl-8-(6-methyl-7-oxo-6,7-dihydro-1H-pyrrolo[2,3-c]pyridin-4-yl)-2H-1,4-benzoxazin-3(4H)-one]",IC50,BRD4-BD1,≤ 100 nM
same,IC50,BRD4-BD2,≤ 100 nM
"CC(O)c1cc2c(c(-c3cn(C)c(=O)c4[nH]ccc34)c1)OC(C)(C)C(=O)N2 (centres unmarked) [Example 81, 6-(1-hydroxyethyl)-2,2-dimethyl-8-(6-methyl-7-oxo-6,7-dihydro-1H-pyrrolo[2,3-c]pyridin-4-yl)-2H-1,4-benzoxazin-3(4H)-one]",IC50,BRD4-BD1,≤ 100 nM
same,IC50,BRD4-BD2,≤ 100 nM
"CC(=O)c1cc(-c2cn(C)c(=O)c3[nH]ccc23)c2c(c1)N(C)C(=O)C(C)(C)O2 [Example 82, 6-acetyl-2,2,4-trimethyl-8-(6-methyl-7-oxo-6,7-dihydro-1H-pyrrolo[2,3-c]pyridin-4-yl)-2H-1,4-benzoxazin-3(4H)-one]",IC50,BRD4-BD1,≤ 100 nM
same,IC50,BRD4-BD2,≤ 100 nM
"CC(O)c1cc(-c2cn(C)c(=O)c3[nH]ccc23)c2c(c1)N(C)C(=O)C(C)(C)O2 (centres unmarked) [Example 83, 6-(1-hydroxyethyl)-2,2,4-trimethyl-8-(6-methyl-7-oxo-6,7-dihydro-1H-pyrrolo[2,3-c]pyridin-4-yl)-2H-1,4-benzoxazin-3(4H)-one]",IC50,BRD4-BD1,≤ 100 nM
same,IC50,BRD4-BD2,≤ 100 nM
"CC(C)C1Oc2c(cc(S(C)(=O)=O)cc2-c2cn(C)c(=O)c3[nH]ncc23)NC1=O (centres unmarked) [Example 84, 2-isopropyl-8-(6-methyl-7-oxo-6,7-dihydro-1H-pyrazolo[3,4-c]pyridin-4-yl)-6-(methylsulfonyl)-2H-1,4-benzoxazin-3(4H)-one]",IC50,BRD4-BD1,≤ 100 nM
same,IC50,BRD4-BD2,≤ 100 nM
